Reference: paper PMC4640567, “Cinnamic Acid Bornyl Ester Derivatives from Valeriana wallichii Exhibit Antileishmanial In Vivo Activity in Leishmania major-Infected BALB/c Mice” (PLoS ONE, 2015)

Assays:
L. major promastigotes [1] = test system: L. major promastigotes; parameters: method as in PMID 24473204; conditions: positive control; cited from earlier work
L. major amastigotes = test system: L. major amastigotes; parameters: method as in PMID 24473204; conditions: positive control; cited from earlier work
L. major promastigotes [2] = assay: Diff-Quik staining and transmitted light microscopy, cell morphology; type: cell-based, Leishmania major; conditions: 122.7 μM
Protocol: (§1) L. major parasites harvested from blood agar cultures were washed twice with Dulbecco’s phosphate-buffered saline (DPBS; Invitrogen, Darmstadt, Germany) and centrifuged at 3.000 × g for 10 min. The pellet was suspended in RPMI 1640 medium at a final concentration of 1 × 10^8 cells/ml. Cells were treated with 1% DMSO, 122.7 μM miltefosine (1-hexadecylphorylcholine; apoptosis inducer), or 100 μM of the tested compounds 1 and 2 in a final volume of 200 μl in 96 well plates. Samples were incubated at 27°C in 5% CO2 for several time points between 30 min and 24 h. Transmitted light microscopic, transmission electron microscopic (TEM), and flow cytometric techniques were used to find phenotypic patterns caused by the treatment with the tested compounds.
After incubation for 30 min, 1 h, 2 h, 4 h, and 24 h in the presence of the tested compounds 1 and 2, promastigotes were harvested and centrifuged in a Cytospin 3 centrifuge (Shandon, Frankfurt, Germany) on microscope slides at 253 × g for 5 min at room temperature (RT). Cytospin preparations of cells were stained using the Differential Quick Stain (Diff-Quik) dye (Medion Diagnostics AG, Duedingen, Switzerland), according to the manufacturers’ protocol with some modifications. Diff-Quik stains the leishmanial nuclei and the kinetoplasts dark purple and the cytoplasm light purple allowing the observation of phenotypic changes within the parasite. Briefly, air-dried cells were fixed by dipping the slides 5 times for 3 seconds in fixative solution. Subsequently the slides were stained with Solution I following Solution II (from Diff-Quik kit) and air-dried between each staining steps. Finally, the samples were rapidly dipped once in ultra-pure water (produced by a TKA purification system apparatus, Niederelbert, Germany) to remove excessive staining solutions. The air-dried cells were analyzed by transmitted light microscopy under a 50× objective on a Nikon ECLIPSE 50i microscope equipped with a digital camera (Nikon, Tokyo, Japan). The images were processed using NIS Elements D software (Nikon).

[3] = AlamarBlue cytotoxicity, BMDM; type: cell-based; conditions: bone marrow-derived macrophages (BMDM)
Protocol: BMDM were generated in complete RPMI medium as described previously. On day six, the cytotoxicity against 2 × 10^5 cells/ml was tested at increasing concentrations of compounds 1 and 2 for 48 h. Human embryonic kidney HEK 293 T cells (ATCC, Wesel, Germany) were cultured in Dulbecco´s Modified Eagle Medium (DMEM) (Life Technologies, Darmstadt, Germany), with 10% FCS (PAA Laboratories, Germany). According to the standard operating procedures (SOP) within the Collaborative Research Center 630 (SFB 630) 2 × 10^4 HEK 293 T cells/ml were tested at increasing concentrations of compounds 1 and 2 for 48 h. Human liver carcinoma HepG2 cells (ATCC) were cultured in RPMI medium (Gibco) with 10% FCS. 1 × 10^5 cells/ml HepG2 were tested at increasing concentrations of 1 and 2 for 72 h according to the SOPs. The AlamarBlue assay was performed as described above for L. major parasites.

L. major promastigotes [4] = assay: Annexin V / propidium iodide flow cytometry, cell death phenotype; type: cell-based, Leishmania major; conditions: 122.7 μM
Protocol: as §1
The loss of membrane integrity and translocation of phosphatidylserine (PS) to the outside of the cellular membrane can be determined by annexin V (AV) and propidium iodide (PI) staining. Double staining with AV-fluorescein isothiocyanate (FITC) and PI during flow cytometry analysis leads to discrimination between four populations: double negatives or alive cells (AV^-/PI^-), double positive or late necrotic/late apoptotic cells (AV^+/PI^+), PI-positive and AV-negative or early necrotic cells (AV^-/PI^+), and PI-negative and AV-positive or early apoptotic cells (AV^+/PI^-).
Parasites were harvested after incubation for 6 h, 10 h, and 24 h in the presence of compounds 1, 2 and miltefosine (Cayman Chemical Company, MI, USA), respectively, the latter serving as positive control for the induction of apoptotic cell death. DMSO was used as solvent control. Cell staining was performed using an AV-FITC Apoptosis detection kit (Sigma-Aldrich, Saint Louis, MO, USA). Cells were harvested, washed and suspended in 500 μL of binding buffer, 5 μL of AV-FITC and 10 μl of PI. The cells were incubated for 10 min in the dark at RT. Finally, stained samples were immediately analyzed by flow cytometry using MACSQuant analyzer or a flow cytometer (Becton Dickinson, San José, CA, USA).

L. major promastigotes [5] = test system: L. major promastigotes; parameters: method as in PMID 25834987; conditions: cited from earlier work

Compound: CCCCCCCCCCCCCCCCOP(=O)([O-])OCC[N+](C)(C)C [Miltefosine, 1-hexadecylphorylcholine, reference compound]
- IC50 (L. major promastigotes [1]): 36.2 µM
- IC50 (L. major amastigotes): 33 µM
- Time after which morphological changes and cell disruption were promoted (L. major promastigotes [2]): 2 h
- IC50 at 48 h [3]: 65.5 µM
- LL: live cells (AV-/PI-) (L. major promastigotes [4]; 6 h): 35.5%
- LR: early apoptotic cells (AV+/PI-) (L. major promastigotes [4]; 6 h): 8.2%
- UL: early necrotic cells (AV-/PI+) (L. major promastigotes [4]; 6 h): 11.8%
- UR: necrotic/late apoptotic cells (AV+/PI+) (L. major promastigotes [4]; 6 h): 44.5%
- LR: early apoptotic cells (AV+/PI-) (L. major promastigotes [4]; 6 h, listed as miltefosine): 8%
- UR: necrotic/late apoptotic cells (AV+/PI+) (L. major promastigotes [4]; 6 h, listed as miltefosine): 45%
- LL: live cells (AV-/PI-) (L. major promastigotes [4]; 10 h): 15.9%
- LR: early apoptotic cells (AV+/PI-) (L. major promastigotes [4]; 10 h): 13.2%
- UL: early necrotic cells (AV-/PI+) (L. major promastigotes [4]; 10 h): 11.3%
- UR: necrotic/late apoptotic cells (AV+/PI+) (L. major promastigotes [4]; 10 h): 59.6%
- LL: live cells (AV-/PI-) (L. major promastigotes [4]; 24 h): 6.3%
- LR: early apoptotic cells (AV+/PI-) (L. major promastigotes [4]; 24 h): 13.0%
- UL: early necrotic cells (AV-/PI+) (L. major promastigotes [4]; 24 h): 5.5%
- UR: necrotic/late apoptotic cells (AV+/PI+) (L. major promastigotes [4]; 24 h): 75.2%
- LR: early apoptotic cells (AV+/PI-) (L. major promastigotes [4]; 24 h, listed as miltefosine): 13%
- UR: necrotic/late apoptotic cells (AV+/PI+) (L. major promastigotes [4]; 24 h, listed as miltefosine): 75%
- Promastigotes with affinity of the parasitic surface towards AV (L. major promastigotes [4]; within 24 h): 88%

Compound: CC1(C)C2CCC1(C)C(OC(=O)/C=C/c1ccc(O)c(O)c1)C2 (stereo not shown) [caffeic acid bornyl ester]
- Antileishmanial activity against L. major promastigotes (L. major promastigotes [5]): good antileishmanial activity
